This note sets out measurements from publication PMC10065799, “High-throughput profiling of sequence recognition by tyrosine kinases and SH2 domains using bacterial peptide display” (eLife, 2023).

Holding throughout (experiment): pTyr-Var library bacterial peptide display kinase screen (enrichment scores)
One assay concerns the target T1, c-Abl kinase domain (Mus musculus, UniProt P00520).
T1 sequence (P00520 242-493 limits assumed): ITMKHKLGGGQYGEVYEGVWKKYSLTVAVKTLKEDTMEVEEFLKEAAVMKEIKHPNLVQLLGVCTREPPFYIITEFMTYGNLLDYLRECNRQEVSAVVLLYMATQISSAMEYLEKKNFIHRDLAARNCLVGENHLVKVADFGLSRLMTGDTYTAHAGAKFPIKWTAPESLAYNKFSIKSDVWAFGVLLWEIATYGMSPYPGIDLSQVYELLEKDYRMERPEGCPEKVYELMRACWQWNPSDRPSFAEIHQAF
The format is biochemical.

The next assay relates to Fer kinase domain. It counts as biochemical, mouse. Conditions: sheet "Fer"; value of the variant peptide against its reference peptide in the pTyr-Var library screen with Fer.
In another assay the target is c-Src kinase domain (Homo sapiens, UniProt P12931). It counts as biochemical. Conditions: for Screen: sheet "Src".
Setting [1] is: fig5-data2, sheet "Abl", Screen for the variant/reference peptide pair, pTyr-Var library.
Setting [2] is: sheet "Abl", effect of variant peptide relative to its reference peptide in pTyr-Var library screen (enrichment).
The mark [3] stands for this setting: effect of the variant peptide relative to its reference peptide in the pTyr-Var library screen.
Where [4] appears, read: variant peptide versus its reference peptide in the pTyr-Var library screen.

With REGAKYVSHGT [ASS1_Y113_A118T], at c-Abl kinase domain (setting [1]), the Screen came out at 0.5424.

For the sequence QHVPDYRQNGF [PCDHGB6_Y889_V893G_YF], the Screen on c-Abl kinase domain (setting [1]) was -1.654.

For the sequence DQVEQYNKELE [LMNA_Y259_K260N], on c-Abl kinase domain (setting [1]), the Screen is -0.1463.

Consider KDPPDYKFQPR [SOX9_Y172_H169P_YF], for which the Screen on c-Abl kinase domain (setting [2]) is on record as -0.03774.

Take PFSNSYENSLI [EPOR_Y489_P488S_YF]: the Screen in the assay with Fer kinase domain is recorded as -1.474.

As for HISGVYKLPPD [ANGPTL7_Y145_R140H], at c-Src kinase domain (setting [3]), the Screen is 1.474.

Take GLCSFYETSKM [MAGED2_Y449_R446C_YF]: in the assay with Fer kinase domain, the Screen stood at 1.926.

Turning to PLDGEYLTLQI [TP53_Y327_F328L], the Screen on c-Src kinase domain (setting [4]) is recorded as -1.75.

For the sequence ATRDVYNPFET [SCAMP3_Y41_L38R], on c-Src kinase domain (setting [4]), the Screen was -1.143.

Consider GKSFIYAAFHA [KCNT1_Y563_T562I], for which the Screen on c-Src kinase domain (setting [3]) is given as -0.6339.

With WANPEYTGGFK [TTN_Y22309_K22306N], the Screen on c-Abl kinase domain (setting [2]) is -1.867.

For the sequence LNSFIYSLRNR [OR1A1_Y288_P285S], the Screen was found to be 0.03527 on c-Abl kinase domain (setting [1]) and 0.8467 on c-Src kinase domain (setting [4]).

As to LGKGSYAKVRS [TSSK2_Y23_K27R], the Screen at c-Abl kinase domain (setting [2]) is listed as 0.9991; at c-Src kinase domain (setting [4]) it was -0.7681.

As to EKGEEYGGGGG [TUBA1A_Y451_E447K], the Screen at c-Abl kinase domain (setting [2]) worked out at 1.685.

Sequence NFGTNYRVGSS [CPO_Y278_K273N_YF] registered a Screen on c-Abl kinase domain (setting [1]) of 0.7292.

With GLIPAYHWVIM [NMNAT1_Y64_R66W], in the assay with Fer kinase domain, the Screen is recorded as 3.48.

ELTSVYGSRAR [SENP1_Y349_D350G] displayed a Screen on c-Src kinase domain (setting [4]) of 0.9781.

Sequence QITQVYGFFHE [PPP2CA_Y127_D131H_YF] showed a Screen on c-Src kinase domain (setting [4]) of 0.1908.

IGEVVYQRAAM [GRIN2A_Y502_V506A]: at c-Src kinase domain (setting [3]), the Screen is -0.3302.

For EGWQVYRLGTR [MISP_Y95_A99T], the Screen on c-Src kinase domain (setting [3]) is listed as -0.2875.

On to LDPDSYNKFEN [FOXC1_Y159_M161K], for which the Screen on c-Abl kinase domain (setting [1]) amounted to 0.592.

In the case of VDGFVYKLHPS [GCK_Y413_S411F], at c-Src kinase domain (setting [3]), the Screen is -2.399.

In turn, CTTIRYNFMCN [TP53_Y234_H233R_YF] gave a Screen at c-Abl kinase domain (setting [2]) of 1.107.

As to CGTPDYIAREI [PRKCG_Y521_P524R], on c-Abl kinase domain (setting [1]), the Screen was 0.3032.

In the case of RNDRVYQPLRD [CD3D_Y149_Q147R], the Screen at c-Src kinase domain (setting [3]) is recorded as -1.537.

In the case of ECIEFYELDKK [PMM2_Y145_R141C], the Screen on c-Abl kinase domain (setting [1]) turned out to be 0.4752.

Consider PFRFIYMAVQH [PTPN11_Y515_Q510P_YF], for which, at c-Src kinase domain (setting [4]), the Screen is recorded as -0.7023.

As to QDEPTYARSSK [PEAK1_Y616_H611Q], the Screen on c-Abl kinase domain (setting [1]) is on record as 1.067.

Turning to RGDTVYTVNCM [KBTBD13_Y404_R408C], the Screen at c-Src kinase domain (setting [3]) is listed as -0.9987.

In the case of GGPAEYLRRAS [PKLR_Y38_G37E], at c-Abl kinase domain (setting [1]), the Screen was found to be 0.6619.

At c-Abl kinase domain (setting [2]), QFFQGYFNNNF [ZNF236_Y644_S643G] showed a Screen of 3.465.

Consider FFRNVYHLASV [RBL1_Y796_K794N_YF], for which, on c-Abl kinase domain (setting [1]), the Screen was -1.016.

As for DFFDLYGGEKK [PTPN11_Y66_F71K_YF], the Screen at c-Abl kinase domain (setting [1]) was 0.6551; on c-Src kinase domain (setting [4]), -0.3154.

With TSPALYRLDLD [TRIL_Y352_A347T], the Screen at c-Abl kinase domain (setting [2]) is -0.2355; at c-Src kinase domain (setting [4]), -0.36.

As to RNGDRYFKEIV [DCX_Y64_G67E], at c-Abl kinase domain (setting [1]), the Screen came to 1.189.

Regarding PRRRFYVVACD [RNASE3_Y134_G130R], the Screen at c-Src kinase domain (setting [4]) is listed as -1.377.

Turning to AVRFIYTIDGS [DCX_Y105_G100A_YF], on c-Src kinase domain (setting [3]), the Screen amounted to 0.6298.

On to ARSHIYTLASC [MEFV_Y741_F743L], for which the Screen at c-Src kinase domain (setting [3]) was 0.6764.

Turning to VEDQFYRVDCF [FHL1_Y208_C209R_YF], the Screen on c-Abl kinase domain (setting [1]) is listed as 0.3405; at c-Src kinase domain (setting [3]), -0.6364.

Take QRRLIYRCQVG [NR2E3_Y81_R76Q]: the Screen at c-Abl kinase domain (setting [1]) is given as 1.984.

PAVGIYNGNIN [CDCP1_Y707_D709G] gave a Screen at c-Src kinase domain (setting [3]) of 0.5447.

On to VFAANYFKLLG [ROR2_Y645_D644N_YF], for which the Screen on c-Abl kinase domain (setting [1]) is on record as 0.3272.

Regarding CGTPEYRAPEI [PRKACA_Y205_L206R], the Screen on c-Abl kinase domain (setting [1]) turned out to be 0.964.

As to CEAMEYPESKQ [BTK_Y511_L512P], the Screen on c-Abl kinase domain (setting [1]) was -1.088.

In turn, NDPMEYAKQHG [ASS1_Y163_L160P] came in with a Screen at c-Abl kinase domain (setting [1]) of 0.6452.

As to LITTLYIDFLG [KCNQ1_Y267_G269D], at c-Src kinase domain (setting [3]), the Screen is -1.548.

For PQIVKYRPDCI [LDHB_Y128_S129R], the Screen on c-Abl kinase domain (setting [1]) was -0.6179.

On to VTAALYGCLFE [BTD_Y536_R538C_YF], for which the Screen at c-Abl kinase domain (setting [1]) was -0.06766; on c-Src kinase domain (setting [3]), -0.3028.

With IMITGYLLLFR [INSR_Y87_D86G], on c-Abl kinase domain (setting [1]), the Screen was 0.04202.

In turn, CVRTIYTIDGS [DCLK2_Y124_G119C] displayed a Screen at c-Src kinase domain (setting [3]) of 0.3247.

With AHAGEYGAVAL [HBA1_Y25_E28V], on c-Src kinase domain (setting [3]), the Screen is 2.935.

The sequence RPIEVYLCPEE [E2F3_Y349_G344R] returned a Screen at c-Src kinase domain (setting [3]) of 1.834.

Regarding DTLASYLDKVR [KRT12_Y139_R135T], on c-Abl kinase domain (setting [1]), the Screen was -1.083.

Turning to LTQRTYMLENA [GPAA1_Y49_S51L], on c-Abl kinase domain (setting [1]), the Screen is listed as -1.886.

APRKVYDTQDD [ZFPL1_Y215_R218Q] displayed a Screen at c-Abl kinase domain (setting [2]) of 3.612.

In the case of RDSQIYAVDFE [MRPS34_Y34_L33I_YF], the Screen at c-Src kinase domain (setting [3]) is 2.537.

Consider EDKSIYRRGAC [PRKCI_Y125_R130C], for which the Screen on c-Abl kinase domain (setting [1]) is 0.9369.

Consider FAFQLYDLDPD [CHP2_Y123_R127P_YF], for which the Screen on c-Src kinase domain (setting [3]) was determined as 0.6897.

As to SVVVPYEPPEL [TP53_Y220_V225L], at c-Abl kinase domain (setting [2]), the Screen was determined as 0.6095.

For the sequence VQQVIYATRAL [MYH7_Y422_G425R], the Screen on c-Abl kinase domain (setting [1]) is recorded as -0.009809; at c-Src kinase domain (setting [4]) it was 0.27.

QLLIEYPPEEV [ZZZ3_Y670_K669E] displayed a Screen at c-Abl kinase domain (setting [2]) of 2.193.

With SKNSKYNAGST [PSEN1_Y315_E318G], the Screen at c-Abl kinase domain (setting [1]) was -0.477.

Take STEAIYWRFSK [SH3PXD2B_Y42_R43W_YF]: the Screen at c-Src kinase domain (setting [4]) came to 2.709.

As to TGQEDYDRLRP [RAC1_Y64_A59T], on c-Abl kinase domain (setting [1]), the Screen is listed as -1.28.

NACGLYHTMNG [GATA5_Y216_K218T] had a Screen at c-Src kinase domain (setting [3]) of 2.558.

On c-Abl kinase domain (setting [1]), QRRLVYFERGA [RYR1_Y245_G248R_YF] had a Screen of 1.153.

As to ISHVAYLVLGK [TRRAP_Y892_R893L], on c-Abl kinase domain (setting [2]), the Screen is -1.807.

Sequence EKKKFYDAKIE [CASP5_Y104_T106A_YF] displayed a Screen at c-Abl kinase domain (setting [1]) of 2.357.

Regarding MSRDVYSIDFF [NTRK2_Y702_T704I_YF], the Screen at c-Src kinase domain (setting [4]) came out at 1.303.

For SGLDSYVRSLP [TRAPPC1_Y133_R129G], the Screen at c-Abl kinase domain (setting [2]) is -0.62.

In the case of PLDGEYFTRQI [TP53_Y327_L330R], the results for the Screen at c-Abl kinase domain (setting [2]) and at c-Src kinase domain (setting [4]) were 1.752 and -2.245, respectively.

Turning to VNFGAYINDFN [GLB1_Y488_K493N_YF], the Screen on c-Abl kinase domain (setting [1]) is on record as 0.7194.

Consider FSGKAYADEEQ [CRIM1_Y826_R831Q], for which the Screen at c-Abl kinase domain (setting [1]) came to 0.3767.

Turning to YDDGKYVYVVT, the “Enrichment score (mean)” value at c-Src kinase domain (pTyr-Var library screen with c-Src, sheet "Src substrates": annotated Src substrate sites, 11-residue peptide SITE_+/-5_AA, mean) is 1.305.

As for QAEELYFGKMG [YES1_Y159_W158L], the Screen at c-Src kinase domain (setting [4]) is reported as 2.237.

LRAGVYREKDQ [DNM2_Y626_P627R]: the Screen at c-Abl kinase domain (setting [1]) is given as -0.9512.

Consider NHFKIYNPCAE [PTEN_Y68_L70P_YF], for which the Screen on c-Abl kinase domain (setting [1]) is listed as 0.7094; at c-Src kinase domain (setting [4]), -2.716.

CKLVDYDSARH [BIN1_Y150_R145C]: the Screen on c-Abl kinase domain (setting [1]) worked out at 0.9945.

Sequence RTVDVYFGPQM [KIRREL3_Y332_R336Q] displayed a Screen at c-Src kinase domain (setting [3]) of 1.347.
